Laboratory results published in patent US12649059B2, “Methods for reducing bleeding in hemophilia by vagus nerve stimulation to prime platelets” (The Feinstein Institutes for Medical Research, priority 2022, dated 2026).
Like-named read-outs stand apart in the source and are kept apart here.

Key:
a7nAChR [1] = biological target: a7nAChR (Mus musculus, UniProt P49582)
Text: (§1) To confirm platelet a7nAChR modulates hemostasis, we first administered the pharmacological a7nAChR agonist nicotine to wild-type mice before tail injury. […] To restrict a7nAChR to platelets, we transferred platelets from wild-type or a7KO donor mice into a7nAChR-deficient animals before tail transection.
(§2) Mice are screened before study inclusion to ensure visual similarity and consistency between the anatomy of the tail tips and the site of transection. […] Following vagus nerve stimulation or sham surgery, tails are immersed in water at 37+1° C. for five minutes. Tails are then removed from the solution, amputated 2 mm from the tip with a razor blade, and immediately placed into a 50 mL beaker containing water at 37+1° C. Tails are allowed to bleed uncontrolled until bleeding stops for a minimum of ten seconds. This duration of bleeding is recorded as bleeding time. For analyses of bleeding in factor VIII deficient mice, tails are first immersed in 0.9% saline at 37±1° C. for five minutes. Tails are then removed and amputated 2 mm from the tip with a razor blade. Tails are then placed into a 50 mL conical tube containing 0.9% saline at 37±1° C. Tails are allowed to bleed freely for a total of ten minutes. Total blood loss is determined by densitometry by measuring absorbance at 550 nm. A standard curve is created from a known volume of blood.

a7nAChR [2] = system: a7nAChR
Text: as §1, §2

Chain of a7nAChR (Mus musculus, UniProt P49582) (P49582 23-502): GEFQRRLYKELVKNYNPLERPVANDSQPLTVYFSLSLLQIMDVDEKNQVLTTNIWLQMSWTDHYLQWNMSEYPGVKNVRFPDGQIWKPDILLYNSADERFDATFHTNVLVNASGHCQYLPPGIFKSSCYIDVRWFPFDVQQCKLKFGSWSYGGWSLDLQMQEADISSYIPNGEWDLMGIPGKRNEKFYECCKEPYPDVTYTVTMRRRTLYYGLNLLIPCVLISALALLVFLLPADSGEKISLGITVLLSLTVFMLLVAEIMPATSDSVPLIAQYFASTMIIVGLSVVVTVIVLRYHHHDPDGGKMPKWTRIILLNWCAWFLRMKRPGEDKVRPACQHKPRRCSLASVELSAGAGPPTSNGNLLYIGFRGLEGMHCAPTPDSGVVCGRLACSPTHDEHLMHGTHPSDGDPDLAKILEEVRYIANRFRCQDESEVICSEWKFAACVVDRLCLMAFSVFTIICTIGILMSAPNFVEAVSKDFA

CN1CCCC1c1cccnc1 (stereo not shown) [nicotine]
bleeding time as compared with vehicle treatment (a7nAChR [1]; a7nAChR-deficient mice reconstituted with wild-type platelets, FIG. 2H, p<0.05 vs. vehicle control): significantly reduces bleeding time | bleeding time as compared with vehicle treatment (a7nAChR [1]; wild-type mice, nicotine before tail injury, FIG. 2G, p<0.01 vs. vehicle control): significantly decreases bleeding time | bleeding time as compared with vehicle treatment (a7nAChR [2]; a7nAChR-deficient mice receiving platelets from a7KO donors, FIG. 2H): not | bleeding time as compared with vehicle treatment (a7nAChR [2]; a7nAChR-deficient mice, nicotine before tail transection, FIG. 2G): fails to reduce bleeding time
